Experimental data taken from patent US9723860B2, “Method for improving economic performance in poultry husbandry” (PURAC BIOCHEM BV, priority 2012, dated 2017).

System: Broiler chickens
Assay: Example 2: 20 day performance of broilers on decreasing levels of lactylate mixture or diclazuril
Assay type: in vivo, chicken (broilers)
Conditions: day 20
Description: Broilers were reared on a diet containing either decreasing levels of a mixture of lauric and myristic lactylates (lactylate test diet), or an effective dose of diclazuril (coccidiostat diet), or a filler consisting of corn starch and kaolin. The birds fed the test diet including the lactylates received the lactylates from the first feed onwards. For the first 10 days, the dosing level of lactylates was 0.4%. From day 11 onwards, the dosing level was reduced to 0.3%. At day 20, the economic performance of the broilers was evaluated using the body weight, body weight gain, feed consumption and feed-to-gain ratio.

[1] = lactylates 0.4% first 10 days, 0.3% from day 11, diclazuril effective dose, in diet

N#CC(c1ccc(Cl)cc1)c1c(Cl)cc(-n2ncc(=O)[nH]c2=O)cc1Cl (centres unmarked) [Coccidiostat, diclazuril]
economic performance versus control group: did not improve performance
Body weight [1]: 850 g
Body weight gain [1]: 804 g
Feed Consumption [1]: 1115 g
Feed-to-Gain ratio [1]: 1.388 g/g
